Test results taken from patent US4220637A (Agence Nationale de Valorisation de la Recherche, priority 1976, dated 1980).

Test system: rabbits
Test: pyrogenic effect test on rabbits (Pharmacopee Francaise, 9th edition, II-235)
Type: in vivo

CC(=O)N[C@H]1C(O)O[C@H](CO)[C@@H](O)[C@@H]1O[C@H](C)C(=O)N[C@@H](C)C(=O)N[C@H](CCC(N)=O)C(N)=O (stereo partly drawn) [Mur-NAc-L-Ala-D-Glu(NH2)--NH2, diamide of the 2-(2-acetamido-2-deoxy-3-O-D-glucopyranosyl)-D-propionyl-L-alanyl-D-glutamic acid]
increase of temperature (2 mg/kg, sub-cutaneously and intravenously): did not induce any increase of temperature | pyrogenic effect (Pharmacopee Francaise protocol): fully devoid of any pyrogenic effect
